Results: ChEMBL document CHEMBL1201862, “PubChem BioAssay data set” (2004)
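Assay format: 96-well plates, 48-hour exposure. At the GI50, growth is halved.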 Calls of active or inactive are those of the source. Rule as the data show it: active = GI50 up to about 1.1 µM and inactive = higher.

Assays:
Experiment in all cases: growth of human tumour cells (NCI), 48 h
786-0 = test system: 786-0
EKVX = test system: EKVX
Hs-578T = test system: Hs-578T
IGROV-1 = test system: IGROV-1
KM12 = test system: KM12
M14 = test system: M14
NCI-H226 = test system: NCI-H226
NCI-H460 = test system: NCI-H460
NCI-H522 = test system: NCI-H522
NCI/ADR-RES = test system: NCI/ADR-RES
PC-3 = test system: PC-3
SF-268 = test system: SF-268
SF-295 = test system: SF-295
SK-MEL-28 = test system: SK-MEL-28
SK-MEL-2 = test system: SK-MEL-2
SN12C = test system: SN12C
SNB-19 = test system: SNB-19
UACC-257 = test system: UACC-257
UACC-62 = test system: UACC-62
TK-10 = test system: TK-10

Row | Compound | GI50 (786-0) | GI50 (EKVX) | GI50 (Hs-578T) | GI50 (IGROV-1) | GI50 (KM12) | GI50 (M14) | GI50 (NCI-H226) | GI50 (NCI-H460) | GI50 (NCI-H522) | GI50 (NCI/ADR-RES) | GI50 (PC-3) | GI50 (SF-268) | GI50 (SF-295) | GI50 (SK-MEL-28) | GI50 (SK-MEL-2) | GI50 (SN12C) | GI50 (SNB-19) | GI50 (UACC-257) | GI50 (UACC-62) | GI50 (TK-10)
1 | NC(=O)c1nnsc1NC=O | > 100 µM (inactive) | > 100 µM (inactive) | > 100 µM (inactive) | > 100 µM (inactive) | > 100 µM (inactive) | > 100 µM (inactive) | > 100 µM (inactive) | > 100 µM (inactive) | > 100 µM (inactive) | > 100 µM (inactive) | > 100 µM (inactive) | > 100 µM (inactive) | > 100 µM (inactive) | > 100 µM (inactive) | > 100 µM (inactive) | > 100 µM (inactive) | > 100 µM (inactive) | > 100 µM (inactive) | > 100 µM (inactive) | 
2 | COc1ccc(CCNC(=O)Cc2cc(OC)c(OC)cc2CO)cc1OC | > 100 µM (inactive) | > 100 µM (inactive) | > 100 µM (inactive) | > 100 µM (inactive) | > 100 µM (inactive) | > 100 µM (inactive) | > 100 µM (inactive) | > 100 µM (inactive) | > 100 µM (inactive) | > 100 µM (inactive) | > 100 µM (inactive) | > 100 µM (inactive) | > 100 µM (inactive) | > 100 µM (inactive) | > 100 µM (inactive) | > 100 µM (inactive) |  | > 100 µM (inactive) | > 100 µM (inactive) | > 100 µM (inactive)
3 | CC(C)=CC(=O)C[C@H]1C(=O)O[C@@H]2C[C@H]3C(C)=CC(=O)[C@@H](O)[C@]3(C)[C@H]3[C@@]4(O)OC[C@]32[C@@H]1[C@@H](C)[C@H]4O | 0.0266 µM (active) | 0.175 µM (active) | 0.029 µM (active) | < 0.01 µM (active) | < 0.0169 µM (active) | 0.0196 µM (active) | < 0.01 µM (active) | < 0.01 µM (active) |  | 0.631 µM (active) | 0.0159 µM (active) | 0.0275 µM (active) | 0.023 µM (active) | < 0.0114 µM (active) | 0.0311 µM (active) | 0.043 µM (active) | < 0.0127 µM (active) | 0.0185 µM (active) | 0.0313 µM (active) | 0.019 µM (active)
4 | Cc1nc2ccc(S(=O)(=O)O)cc2c(=O)n1-c1ccc(C(=O)NN2C(=O)C(Cl)C2c2ccccc2O)cc1 (stereo unspecified) | > 100 µM (inactive) | 60.1 µM (inactive) | > 100 µM (inactive) | > 100 µM (inactive) | > 100 µM (inactive) | > 100 µM (inactive) | > 100 µM (inactive) |  | > 100 µM (inactive) | > 100 µM (inactive) | > 100 µM (inactive) | > 100 µM (inactive) | > 100 µM (inactive) | > 100 µM (inactive) | > 100 µM (inactive) | > 100 µM (inactive) | > 100 µM (inactive) | > 100 µM (inactive) |  | > 100 µM (inactive)
5 | CCOC(=O)/C(=C\NC(=S)Nc1ccc(OCC)cc1)C(=O)c1ccccc1 | > 100 µM (inactive) | > 100 µM (inactive) | 57.9 µM (inactive) | > 100 µM (inactive) | > 100 µM (inactive) | > 100 µM (inactive) | > 100 µM (inactive) | > 100 µM (inactive) | > 100 µM (inactive) | > 100 µM (inactive) | > 100 µM (inactive) | > 100 µM (inactive) | > 100 µM (inactive) | > 100 µM (inactive) | > 100 µM (inactive) | > 100 µM (inactive) | > 100 µM (inactive) | > 100 µM (inactive) | > 100 µM (inactive) | 
6 | CC(=O)N1CCN(CCCCN2c3ccccc3Sc3cc(N=[N+]=[N-])ccc32)CC1 | 15.6 µM (inactive) | 18.2 µM (inactive) | 15 µM (inactive) | 15.2 µM (inactive) | 13.5 µM (inactive) |  | 17.6 µM (inactive) | 14.1 µM (inactive) | 13 µM (inactive) | 12.6 µM (inactive) | 7 µM (inactive) | 18.2 µM (inactive) | 16.8 µM (inactive) | 18.1 µM (inactive) |  | 15.6 µM (inactive) | 14.5 µM (inactive) | 24.5 µM (inactive) | 2.69 µM (inactive) | 17.4 µM (inactive)
7 | CCOC(=O)n1[nH]c(=O)n(-c2ccccc2)c1=O | > 100 µM (inactive) | > 100 µM (inactive) | > 100 µM (inactive) | > 100 µM (inactive) | > 100 µM (inactive) | > 100 µM (inactive) | > 100 µM (inactive) | > 100 µM (inactive) |  | > 100 µM (inactive) | > 100 µM (inactive) | > 100 µM (inactive) | > 100 µM (inactive) | > 100 µM (inactive) | > 100 µM (inactive) | > 100 µM (inactive) | > 100 µM (inactive) | > 100 µM (inactive) | > 100 µM (inactive) | > 100 µM (inactive)
